Laboratory results as given in patent publication US11304935B2 (UNIVERSITY OF SOUTH CHINA, priority 2018, dated 2022).

System: pentylenetetrazole-induced epilepsy
Test: Pentylenetetrazole-induced epilepsy model mice
Type: in vivo, C57BL/6 mice
Conditions: I-BRD9 10, 15, 20 mg/kg i.p. or s.c. 1 h before 45 mg/kg pentylenetetrazole i.p., compared with epilepsy model group
Description: In the present disclosure, the animals are all 8-week-old healthy male C57BL/6 mice, weighing 22-24 grams, all purchased from Hunan SJD laboratory animal Co. LTD., license number: SCXK (Xiang) 2016-0002. C57BL/6 mice in different groups were all feed in an artificial day and night 12-hour circular lighting environment (7:00 AM-7:00 PM). The mice in the groups and were kept in cages, 4-6 mice per cage. In the cages, the mice had free access to food and water; and the daily food and water were changed regularly
Animals in each group were administered with corresponding dosage of drugs or vehicle by intraperitoneal or subcutaneous injection. 1 h later, 45 mg/kg of pentylenetetrazole was intraperitoneally injected. The behaviors and conditions of the animals were observed. Later, changes of mice behaviors were closely observed through video monitoring system for 1 h, and seizure level was evaluated by Racine grading standard. The incubation period (started after the completion the administration of pentylenetetrazole, and ended by the first time muscle spasm occurred), seizure level (subjected to the highest level) and duration period of the seizure were recorded.
Seizure level of mice were referred to a modified Racine scale:
I stage: rhythmical mouth, ears and facial twitch and spasm;
II stage: nodding and more serious facial twitch and spasm;
III stage: clonus of forelimb occurs, without up-right;
IV stage: rearing with forelimb clonus;
V stage: stiffness clonus occurs in the whole body, and falling.

**Q.** For `CCn1cc(-c2cccc(C(F)(F)F)c2)c2sc(C(=N)NC3CCS(=O)(=O)CC3)cc2c1=O` [I-BRD9], which “seizure level (modified Racine scale)” value (FIG. 1) is on record?
**A.** obviously reduced seizure level

**Q.** What about the epilepsy susceptibility (FIG. 2) of the same compound?
**A.** reduced epilepsy susceptibility

**Q.** What about the “incubation period (onset time of epilepsy)” value (FIG. 3) of the same compound?
**A.** postpone the onset time of epilepsy
